In patent publication EP2818472A1, “Imidazo[4,5-c]pyridine and pyrrolo[3,2-c]pyridine compounds as G-protein-coupled receptor kinase 5 (GRK5) modulators” (Max-Planck-Gesellschaft zur Förderung der Wissenschaften …, priority 2013, dated 2014) one finds Emax data, which are given here for 40 compounds.

SMILES strings stand for the structures.

The test system of this experiment is beta-TC6 cells. The experiment is described as follows: Insulin HTRF assay (relative activity Ar) in beta-TC6 cells. It counts as cell-based, mouse. To be noted: Mus musculus, Beta-TC6, 4 h, insulin HTRF, supernatant of beta-TC6 cells, incubation with test compound at 37°C for 2, 3, 4h; read-out: Ar (relative activity). The essentials:
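beta-TC6 cells (15k/well, seeded 24 or 48 h) washed, then exposed to compound in induction buffer (0.5% DMSO final) for 2, 3 or 4 h at 37°C.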
A general note: Time-resolved FRET reads energy transfer from a long-lived donor to a nearby acceptor.

Consider `COc1ccc(Nc2cc3c(cn2)nc(-c2ccc(OC)c(OC)c2)n3C)cc1O` [Compound 723, 5-[[2-(3,4-dimethoxyphenyl)-1-methyl-imidazo[4,5-c]pyridin-6-yl]amino]-2-methoxy-phenol], for which the Emax is greater than 100%.
In the case of `NC(=O)c1ccc(Nc2nccc3[nH]c(-c4ccsc4)cc23)cc1` [Compound 250, 4-[[2-(3-thienyl)-1H-pyrrolo[3,2-c]pyridin-4-yl]amino]benzamide], the Emax was in the range of 50 to 100%.
The same measure for `c1cc2[nH]c(-c3ccsc3)cc2c(Nc2ccc3c(c2)OCCO3)n1` [Compound 252, N-(2,3-dihydro-1,4-benzodioxin-6-yl)-2-(3-thienyl)-1H-pyrrolo[3,2-c]pyridin-4-amine]: 50 to 100%.
As for `CNc1nc2cnc(Nc3ccc(OC)c(OC)c3)cc2n1-c1cccc(C(F)(F)F)c1` [Compound 545, N6-(3,4-dimethoxyphenyl)-N2-methyl-1-[3-(trifluoromethyl)phenyl]imidazo[4,5-c]pyridine-2,6-diamine], the Emax lay within 30 to 50%.
Under `Cn1c(-c2ccc3ccccc3n2)nc2cnccc21` [Compound 778, 2-(1-methylimidazo[4,5-c]pyridin-2-yl)quinoline] stands 0 to 30%; under `Cn1c(-c2cccnc2)cc2cnc(Nc3ccc(F)cc3)cc21` [Compound 92, N-(4-fluorophenyl)-1-methyl-2-(3-pyridyl)pyrrolo[3,2-c]pyridin-6-amine], 0 to 30%; under `Fc1cccc(Nc2cc3[nH]c(-c4cn[nH]c4)cc3cn2)c1` [Compound 119, N-(3-fluorophenyl)-2-(1H-pyrazol-4-yl)-1H-pyrrolo[3,2-c]pyridin-6-amine], 50 to 100%.
As to `CNc1nc2cnc(-c3cccc(C(=O)NCCN(C)C)c3)cc2n1Cc1ccccc1` [Compound 793, 3-[1-benzyl-2-(methylamino)imidazo[4,5-c]pyridin-6-yl]-N-(2-dimethylaminoethyl)benzamide], the Emax is 0 to 30%.
On to `CNc1nc2cnc(Nc3ccc4c(c3)OCCO4)cc2n1CCN1CCOCC1` [Compound 554, N6-(2,3-dihydro-1,4-benzodioxin-6-yl)-N2-methyl-1-(2-morpholinoethyl)imidazo[4,5-c]pyridine-2,6-diamine], for which the Emax was 50 to 100%.
On to `CNc1nc2cnc(Nc3ccc(OC)cc3)cc2n1-c1cccc(C(F)(F)F)c1` [Compound 547, N6-(4-methoxyphenyl)-N2-methyl-1-[3-(trifluoromethyl)phenyl]imidazo[4,5-c]pyridine-2,6-diamine], for which the Emax lay within 30 to 50%.
Take `COc1ccc(-c2nc3c(NCC(C)C)nccc3[nH]2)cc1OC` [Compound 344, 2-(3,4-dimethoxyphenyl)-N-isobutyl-1H-imidazo[4,5-c]pyridin-4-amine]: the Emax is 30 to 50%.
Take `COCCNc1nccc2[nH]c(-c3cccc(C(F)(F)F)c3)nc12` [Compound 355, N-(2-methoxyethyl)-2-[3-(trifluoromethyl)phenyl]-1H-imidazo[4,5-c]pyridin-4-amine]: the Emax is 30 to 50%.
As to `COc1cccc(-c2cc3c(Nc4cccc(S(C)(=O)=O)c4)nccc3[nH]2)c1` [Compound 311, 2-(3-methoxyphenyl)-N-(3-methylsulfonylphenyl)-1H-pyrrolo[3,2-c]pyridin-4-amine], the Emax is 50 to 100%.
In the case of `Cn1c(-c2ccsc2)cc2c(Nc3cccc(NS(C)(=O)=O)c3)nccc21` [Compound 286, N-[3-[[1-methyl-2-(3-thienyl)pyrrolo[3,2-c]pyridin-4-yl]amino]phenyl]methanesulfonamide], the Emax lay within 50 to 100%.
On to `CN(C)C(=O)c1ccc(Nc2cc3[nH]c(-c4ccccn4)cc3cn2)cc1` [Compound 70, N,N-dimethyl-4-[[2-(2-pyridyl)-1H-pyrrolo[3,2-c]pyridin-6-yl]amino]benzamide], for which the Emax is greater than 100%.
On to `Cc1cccc(CNc2nc3cnc(Nc4cccc(S(C)(=O)=O)c4)cc3n2C)c1` [Compound 584, 1-methyl-N6-(3-methylsulfonylphenyl)-N2-(m-tolylmethyl)imidazo[4,5-c]pyridine-2,6-diamine], for which the Emax was 30 to 50%.
Take `Cn1cc(-c2cc3c(Nc4ccc(S(C)(=O)=O)cc4)nccc3[nH]2)cn1` [Compound 246, 2-(1-methylpyrazol-4-yl)-N-(4-methylsulfonylphenyl)-1H-pyrrolo[3,2-c]pyridin-4-amine]: the Emax is greater than 100%.
Consider `COc1ccc(Nc2nccc3[nH]c(-c4cccnc4)cc23)cn1` [Compound 233, N-(6-methoxy-3-pyridyl)-2-(3-pyridyl)-1H-pyrrolo[3,2-c]pyridin-4-amine], for which the Emax was 50 to 100%.
Turning to `CNc1nc2cnc(-c3ccc(O)c(OC)c3)cc2n1Cc1ccccc1` [Compound 797, 4-[1-benzyl-2-(methylamino)imidazo[4,5-c]pyridin-6-yl]-2-methoxy-phenol], the Emax fell in the range of 30 to 50%.
As to `CNc1nc2cnc(Nc3cccc(Cl)c3)cc2n1Cc1ccc(OC)c(OC)c1` [Compound 666, N6-(3-chlorophenyl)-1-[(3,4-dimethoxyphenyl)methyl]-N2-methyl-imidazo[4,5-c]pyridine-2,6-diamine], the Emax is 30 to 50%.
Take `CNc1nc2cnc(-c3ccsc3)cc2n1Cc1ccc(OC)c(OC)c1` [Compound 877, 1-[(3,4-dimethoxyphenyl)methyl]-N-methyl-6-(3-thienyl)imidazo[4,5-c]pyridin-2-amine]: the Emax was in the range of 30 to 50%.
For the compound `c1ccc(-c2nc3cnccc3[nH]2)nc1` [Compound 742, 2-(2-pyridyl)-1H-imidazo[4,5-c]pyridine], the Emax is 30 to 50%.
As to `Cn1cc(-c2cc3cnc(Nc4ccc(F)cc4)cc3n2C)cn1` [Compound 138, N-(4-fluorophenyl)-1-methyl-2-(1-methylpyrazol-4-yl)pyrrolo[3,2-c]pyridin-6-amine], the Emax was 50 to 100%.
In the case of `CN(C)c1cccc(Nc2nccc3c2cc(-c2ccsc2)n3C)c1` [Compound 277, N1,N1-dimethyl-N3-[1-methyl-2-(3-thienyl)pyrrolo[3,2-c]pyridin-4-yl]benzene-1,3-diamine], the Emax was 30 to 50%.
`COCCNc1nc2cnc(-c3ccc(S(C)(=O)=O)cc3)cc2n1C` [Compound 648, N-(2-methoxyethyl)-1-methyl-6-(4-methylsulfonylphenyl)imidazo[4,5-c]pyridin-2-amine]: the Emax is 30 to 50%.
In the case of `CN(C)C(=O)c1ccc(Nc2cc3c(cn2)nc(-c2cccc(F)c2)n3C)cc1` [Compound 715, 4-[[2-(3-fluorophenyl)-1-methyl-imidazo[4,5-c]pyridin-6-yl]amino]-N,N-dimethyl-benzamide], the Emax fell in the range of 30 to 50%.
As to `CN(C)C(=O)c1ccc(-c2cc3c(Nc4cccc(O)c4)nccc3n2C)cc1` [Compound 221, 4-[4-(3-hydroxyanilino)-1-methyl-pyrrolo[3,2-c]pyridin-2-yl]-N,N-dimethyl-benzamide], the Emax was in the range of 30 to 50%.
In the case of `COc1cc(-n2cnc3cnc(Nc4cccc(C(F)(F)F)c4)cc32)cc(OC)c1OC` [Compound 690, N-[3-(trifluoromethyl)phenyl]-1-(3,4,5-trimethoxyphenyl)imidazo[4,5-c]pyridin-6-amine], the Emax was greater than 100%.
The same measure for `CNc1nc2cnc(-c3cccc4ccccc34)cc2n1Cc1ccc(OC)c(OC)c1` [Compound 670, 1-[(3,4-dimethoxyphenyl)methyl]-N-methyl-6-(1-naphthyl)imidazo[4,5-c]pyridin-2-amine]: 30 to 50%.
In the case of `Cn1c(NCC2CC2)nc2cnc(Nc3ccc(C(F)(F)F)cc3)cc21` [Compound 763, N2-(cyclopropylmethyl)-1-methyl-N6-[4-(trifluoromethyl)phenyl]imidazo[4,5-c]pyridine-2,6-diamine], the Emax was 0 to 30%.
With `CNc1nc2cnc(Nc3ccc(OC)nc3)cc2n1-c1cc(OC)c(OC)c(OC)c1` [Compound 488, N6-(6-methoxy-3-pyridyl)-N2-methyl-1-(3,4,5-trimethoxyphenyl)imidazo[4,5-c]pyridine-2,6-diamine], the Emax lay within 50 to 100%.
As for `COc1ccc(OC)c(CCNc2nc3cnc(-c4cc(OC)c(OC)c(OC)c4)cc3n2C)c1` [Compound 593, N-[2-(2,5-dimethoxyphenyl)ethyl]-1-methyl-6-(3,4,5-trimethoxyphenyl)imidazo[4,5-c]pyridin-2-amine], the Emax fell in the range of 30 to 50%.
Take `Cn1cc(-c2cc3c(Nc4cccnc4)nccc3n2C)cn1` [Compound 247, 1-methyl-2-(1-methylpyrazol-4-yl)-N-(3-pyridyl)pyrrolo[3,2-c]pyridin-4-amine]: the Emax was greater than 100%.
Under `COc1ccc(Nc2cc3[nH]c(-c4ccccc4)cc3cn2)cc1OC` [Compound 175, N-(3,4-dimethoxyphenyl)-2-phenyl-1 H-pyrrolo[3,2-c]pyridin-6-amine] stands 50 to 100%.
With `CC(=O)Nc1cccc(Nc2nccc3c2cc(-c2cccc(F)c2)n3C)c1` [Compound 210, N-[3-[[2-(3-fluorophenyl)-1-methyl-pyrrolo[3,2-c]pyridin-4-yl]amino]phenyl]acetamide], the Emax fell in the range of 30 to 50%.
The same measure for `CC(C)CNc1nccc2[nH]c(-c3ccc4c(c3)OCCO4)nc12` [Compound 413, 2-(2,3-dihydro-1,4-benzodioxin-6-yl)-N-isobutyl-1H-imidazo[4,5-c]pyridin-4-amine]: 30 to 50%.
Take `COc1ccc(Nc2cc3[nH]c(-c4ccccn4)cc3cn2)c(C)c1` [Compound 63, N-(4-methoxy-2-methyl-phenyl)-2-(2-pyridyl)-1H-pyrrolo[3,2-c]pyridin-6-amine]: the Emax is 50 to 100%.
`CNc1nc2cnc(Nc3cccc(N(C)C)c3)cc2n1Cc1ccco1` [Compound 522, N6-[3-(dimethylamino)phenyl]-1-(2-furylmethyl)-N2-methyl-imidazo[4,5-c]pyridine-2,6-diamine]: the Emax was 30 to 50%.
The same measure for `CNc1nc2cnc(Nc3ccc(OC)cc3)cc2n1-c1cccc(F)c1` [Compound 685, 1-(3-fluorophenyl)-N6-(4-methoxyphenyl)-N2-methyl-imidazo[4,5-c]pyridine-2,6-diamine]: 50 to 100%; for `Cn1cc(-c2cc3cnc(Nc4ccc5c(c4)OCO5)cc3n2C)cn1` [Compound 143, N-(1,3-benzodioxol-5-yl)-1-methyl-2-(1-methylpyrazol-4-yl)pyrrolo[3,2-c]pyridin-6-amine]: greater than 100%.
